From patent US20050084509A1, “Use of citric acid and low concentrations of alpha-hydroxy acids for superficial skin treatment” (priority 2003, published 2005)

Tests used:
[1] = system: photodamaged skin; test: citric acid peels on photodamaged skin (office peel study); conditions: 50 percent citric acid solution
[2] = system: skin; test: low concentration citric acid peel self-administered in the home; assay type: in vivo, human
[3] = system: signs of photoaging; test: citric acid versus glycolic acid at equal concentration and same pH; assay type: in vivo, human
[4] = system: ichthyosis; conditions: in vivo; cited from earlier work
[5] = two months after last treatment

O=C(O)CC(O)(CC(=O)O)C(=O)O [citric acid]
fine lines and wrinkles, photographs evaluated by blinded observers ([1]; 2-5 min, neutralized, peels at one month intervals, evaluated two months after last treatment): statistically significant improvement
redness immediately following a peel ([1]; immediately after peel): increase in redness
fine lines, wrinkles by Primos topographic image analysis [1, 5]: improvement in fine lines, wrinkles
pore size by Primos topographic image analysis [1, 5]: reduction in pore size
redness by cross-polarized photography [1, 5]: no dramatic change in redness
subjective assessment of fine lines, wrinkles, enlarged pores, and brown spots ([2]; 10 percent citric acid solution, three treatments at two-week intervals, two months after third treatment): statistically significant improvement
skin tolerance without neutralization ([2]; ten percent citric acid): may be left on most people's skin without neutralization
reducing the signs of photoaging versus glycolic acid ([3]; equal concentration of glycolic acid at the same pH): more effective
side effects versus glycolic acid ([3]; glycolic acid of the same concentration): side effects are less
efficacy in treating ichthyosis [4]: highly effective
